Measured values published in the NIST ThermoML archive (doi:10.1021/je800530u).

Conditions: Liquid, Closed cell (Static) method

NCCO [2-aminoethan-1-ol]
Conditions	vapor or sublimation pressure [kPa]
283.15 K	0.0158
283.34 K	0.016
288.34 K	0.02533
293.15 K	0.0382
293.34 K	0.03866
298.34 K	0.05866
303.15 K	0.0867
303.34 K	0.08799
308.34 K	0.1293
313.15 K	0.1855
313.34 K	0.188
318.34 K	0.2693
323.15 K	0.3762
323.34 K	0.3813
328.34 K	0.5333
333.15 K	0.7274
333.34 K	0.7359
338.34 K	1.007
343.15 K	1.347
343.34 K	1.363
348.34 K	1.827
353.15 K	2.4
353.34 K	2.425
358.34 K	3.193
363.09 K	4.113
363.15 K	4.126

CN1CCOCC1 [N-methylmorpholine]
Conditions	vapor or sublimation pressure [kPa]
273.18 K	0.6893
278.18 K	0.9533
283.18 K	1.3
288.18 K	1.748
293.18 K	2.322
298.18 K	3.049
303.18 K	3.96
308.18 K	5.09
313.15 K	6.471
313.18 K	6.479
318.18 K	8.174
323.15 K	10.21
323.18 K	10.22
328.18 K	12.68
333.15 K	15.58
333.18 K	15.6
338.18 K	19.06
343.15 K	23.1
343.18 K	23.13
348.18 K	27.88
353.08 K	33.27
353.15 K	33.35
363.15 K	47.02

O [water]
Conditions	vapor or sublimation pressure [kPa]
282.87 K	1.177
283.15 K	1.2
287.87 K	1.636
292.87 K	2.244
293.15 K	2.284
297.87 K	3.044
302.87 K	4.081
303.15 K	4.148
307.87 K	5.416
312.87 K	7.114
313.15 K	7.222
317.87 K	9.258
322.87 K	11.94
323.15 K	12.11
327.87 K	15.27
332.87 K	19.36
333.15 K	19.62
337.87 K	24.37
342.87 K	30.44
343.15 K	30.82
347.87 K	37.76
352.87 K	46.53
353.15 K	47.07
357.87 K	56.98
362.87 K	69.35
363.15 K	70.1
363.8 K	71.88
